pIC50: −log10 of the molar value.
Molecular target: T1, human bradykinin B2 receptor (hB2R) (Homo sapiens, UniProt P30411)
T1 sequence (P30411 1-391): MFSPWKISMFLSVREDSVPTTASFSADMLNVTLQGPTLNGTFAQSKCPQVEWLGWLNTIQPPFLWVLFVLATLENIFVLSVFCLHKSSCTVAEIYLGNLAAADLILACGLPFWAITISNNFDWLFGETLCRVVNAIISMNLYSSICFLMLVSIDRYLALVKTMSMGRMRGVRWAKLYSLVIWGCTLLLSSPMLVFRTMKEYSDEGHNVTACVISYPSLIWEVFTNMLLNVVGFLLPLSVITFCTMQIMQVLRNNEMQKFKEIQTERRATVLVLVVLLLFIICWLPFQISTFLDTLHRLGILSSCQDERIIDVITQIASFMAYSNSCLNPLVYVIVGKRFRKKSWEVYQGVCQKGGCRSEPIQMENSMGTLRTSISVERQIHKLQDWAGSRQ
Assay: human bradykinin B2 receptor calcium mobilization (hB2R-CaM) assay
Format: cell-based
Conditions: antagonism of bradykinin (EC80) induced calcium mobilization, B2 Bradykinin Receptor Stable Cell Line HTS041C, 25 min pre-incubation; read-out: IC50-value towards human bradykinin B2 receptor (hB2R)

SMILES | pIC50
Cc1cc(-n2cc(F)cn2)c2cccc(OCc3c(Cl)cc(F)cc3[C@H](C)N3C(=O)[C@H](C)NC(=O)[C@@H]3C)c2n1 [compound 90] | 7.00 to 7.96
Cc1cc(-c2ncnn2C)c2cccc(OCc3c(Cl)cc(F)cc3[C@H](C)N3CC[C@H](N)C3=O)c2n1 [compound 69] | 7.00 to 7.96

Reference: patent publication US12312330B2, “1-((S)-1-(3-chloro-5-fluoro-2-((4-(1h-pyrazol-1-yl)-2-methylquinolin-8-yloxy)methyl)phenyl)ethyl)-imidazolidine-2,4-dione derivatives and related compounds as bradykinin (BK) B2 receptor antagonist for treating skin diseases” (Pharvaris GmbH, priority 2019, dated 2025)
